According to PubChem BioAssay (NCI):
Several values for one entry are separate records, joined by “and”; a condition that tells them apart may be missing. Equal values may be shown once.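 Growth conditions: 96-well plates. Treatment: test compound, 48 hours, 5 concentrations. Analysis: linear interpolation between bracketing concentrations; unreached endpoints set to highest concentration. Here, GI50 denotes the concentration required for 50% inhibition of growth. TGI: concentration producing complete growth inhibition.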

Assays:
Assay in all cases: growth of human tumour cells (NCI), 48 h
HCT-15 colon = system: HCT-15 colon
OVCAR-8 ovarian = system: OVCAR-8 ovarian
HCT-116 colon = system: HCT-116 colon
BT-549 breast = system: BT-549 breast
MDA-MB-435 = system: MDA-MB-435
MDA-MB-231 breast = system: MDA-MB-231 breast
K-562 leukemia = system: K-562 leukemia
SF-268 CNS = system: SF-268 CNS
SNB-75 CNS = system: SNB-75 CNS
DU-145 prostate = system: DU-145 prostate
SF-539 CNS = system: SF-539 CNS
A549 NSCLC = system: A549 NSCLC
MALME-3M melanoma = system: MALME-3M melanoma
HOP-92 NSCLC = system: HOP-92 NSCLC
SNB-19 CNS = system: SNB-19 CNS
T-47D breast = system: T-47D breast
UACC-62 melanoma = system: UACC-62 melanoma
NCI-H522 lung = system: NCI-H522 lung
SK-MEL-28 melanoma = system: SK-MEL-28 melanoma
SK-MEL-2 melanoma = system: SK-MEL-2 melanoma
SK-OV-3 ovarian = system: SK-OV-3 ovarian
RPMI-8226 leukemia = system: RPMI-8226 leukemia
NCI-H226 lung = system: NCI-H226 lung
HT29 colon = system: HT29 colon
SW-620 colon = system: SW-620 colon
EKVX NSCLC = system: EKVX NSCLC
MCF7 breast = system: MCF7 breast
UO-31 renal = system: UO-31 renal
CCRF-CEM leukemia = system: CCRF-CEM leukemia
SK-MEL-5 melanoma = system: SK-MEL-5 melanoma
SR leukemia = system: SR leukemia
HL-60(TB) leukemia = system: HL-60(TB) leukemia
NCI-H460 lung = system: NCI-H460 lung
HCC-2998 colon = system: HCC-2998 colon
TK-10 renal = system: TK-10 renal
NCI-H23 lung = system: NCI-H23 lung
HOP-62 NSCLC = system: HOP-62 NSCLC
M14 melanoma = system: M14 melanoma
UACC-257 melanoma = system: UACC-257 melanoma
SN12C renal = system: SN12C renal
HS 578T breast = system: HS 578T breast
U251 CNS = system: U251 CNS
A498 renal = system: A498 renal
ACHN renal = system: ACHN renal
OVCAR-5 ovarian = system: OVCAR-5 ovarian
SF-295 CNS = system: SF-295 CNS
CAKI-1 renal = system: CAKI-1 renal
OVCAR-3 ovarian = system: OVCAR-3 ovarian
OVCAR-4 ovarian = system: OVCAR-4 ovarian
PC-3 prostate = system: PC-3 prostate
KM12 colon = system: KM12 colon
NCI/ADR-RES ovarian = system: NCI/ADR-RES ovarian
786-0 renal = system: 786-0 renal
IGROV1 ovarian = system: IGROV1 ovarian
COLO 205 colon = system: COLO 205 colon
LOX IMVI melanoma = system: LOX IMVI melanoma
MOLT-4 leukemia = system: MOLT-4 leukemia
RXF 393 renal = system: RXF 393 renal

SMILES: CS(=O)(=O)Nc1cc(-c2ccc3ncnc(Nc4ccc(F)c(Cl)c4)c3c2)cnc1Cl
- GI50 (HCT-15 colon): 0.559 µM and 0.542 µM
- TGI (HCT-15 colon): 11.2 µM and 11.6 µM
- GI50 (OVCAR-8 ovarian): 1.68 µM and 1.72 µM
- TGI (OVCAR-8 ovarian): 12.9 µM and > 40.4 µM
- GI50 (HCT-116 colon): 0.783 µM and 0.946 µM
- TGI (HCT-116 colon): 3.22 µM and 5.22 µM
- GI50 (BT-549 breast): 0.307 µM and 0.287 µM
- TGI (BT-549 breast): 3.36 µM and 2.68 µM
- GI50 (MDA-MB-435): 0.605 µM and 0.537 µM
- TGI (MDA-MB-435): 7.03 µM and 4.96 µM
- GI50 (MDA-MB-231 breast): 0.98 µM and 1.07 µM
- TGI (MDA-MB-231 breast): 3.21 µM and 5.92 µM
- GI50 (K-562 leukemia): 1.71 µM
- TGI (K-562 leukemia): > 82.4 µM
- GI50 (SF-268 CNS): 0.51 µM and 0.675 µM
- TGI (SF-268 CNS): 8.05 µM and 20.1 µM
- GI50 (SNB-75 CNS): 0.132 µM and 0.0697 µM
- TGI (SNB-75 CNS): 1.28 µM and 0.812 µM
- GI50 (DU-145 prostate): 0.738 µM and 0.766 µM
- TGI (DU-145 prostate): 11.1 µM and 13.6 µM
- GI50 (SF-539 CNS): 0.431 µM and 0.541 µM
- TGI (SF-539 CNS): 2.52 µM and 3.33 µM
- GI50 (A549 NSCLC): 1.14 µM and 1.26 µM
- TGI (A549 NSCLC): 4.67 µM and 5.81 µM
- GI50 (MALME-3M melanoma): 0.191 µM and 0.179 µM
- TGI (MALME-3M melanoma): 1.13 µM and 1.56 µM
- GI50 (HOP-92 NSCLC): 0.162 µM and 0.0782 µM
- TGI (HOP-92 NSCLC): 0.893 µM and 0.797 µM
- GI50 (SNB-19 CNS): 0.673 µM and 0.596 µM
- TGI (SNB-19 CNS): 10.1 µM and 7.92 µM
- GI50 (T-47D breast): 0.0323 µM and 0.0901 µM
- TGI (T-47D breast): 0.437 µM and 0.892 µM
- GI50 (UACC-62 melanoma): 0.255 µM
- TGI (UACC-62 melanoma): 1.56 µM
- GI50 (NCI-H522 lung): 0.4 µM and 0.815 µM
- TGI (NCI-H522 lung): 3.9 µM and 9.8 µM
- GI50 (SK-MEL-28 melanoma): 0.345 µM
- TGI (SK-MEL-28 melanoma): 9.61 µM
- GI50 (SK-MEL-2 melanoma): 0.289 µM and 0.441 µM
- TGI (SK-MEL-2 melanoma): 1.53 µM and 2.32 µM
- GI50 (SK-OV-3 ovarian): 0.255 µM and 0.317 µM
- TGI (SK-OV-3 ovarian): 1.34 µM and 2.71 µM
- GI50 (RPMI-8226 leukemia): 0.444 µM and 0.598 µM
- TGI (RPMI-8226 leukemia): 2.67 µM and 3.4 µM
- GI50 (NCI-H226 lung): 1.63 µM and 1.33 µM
- TGI (NCI-H226 lung): 22.9 µM and 13.7 µM
- GI50 (HT29 colon): 0.369 µM and 0.503 µM
- TGI (HT29 colon): 6.82 µM and 7.81 µM
- GI50 (SW-620 colon): 0.741 µM and 1.01 µM
- TGI (SW-620 colon): 11.2 µM and 11.9 µM
- GI50 (EKVX NSCLC): 0.34 µM and 0.352 µM
- TGI (EKVX NSCLC): 3.19 µM and 2.61 µM
- GI50 (MCF7 breast): 0.216 µM and 0.227 µM
- TGI (MCF7 breast): 11.4 µM and 11.8 µM
- GI50 (UO-31 renal): 0.204 µM
- TGI (UO-31 renal): 1.69 µM
- GI50 (CCRF-CEM leukemia): 0.378 µM and 0.309 µM
- TGI (CCRF-CEM leukemia): 11.9 µM and 28.1 µM
- GI50 (SK-MEL-5 melanoma): 0.41 µM
- TGI (SK-MEL-5 melanoma): 1.69 µM
- GI50 (SR leukemia): 0.577 µM and 2.2 µM
- TGI (SR leukemia): 5.56 µM and 43 µM
- GI50 (HL-60(TB) leukemia): 0.514 µM and 0.302 µM
- TGI (HL-60(TB) leukemia): 14.7 µM and 3.35 µM
- GI50 (NCI-H460 lung): 0.753 µM and 0.98 µM
- TGI (NCI-H460 lung): 11.5 µM and 12.9 µM
- GI50 (HCC-2998 colon): 1.21 µM
- TGI (HCC-2998 colon): 4.05 µM
- GI50 (TK-10 renal): 0.261 µM
- TGI (TK-10 renal): 2.28 µM
- GI50 (NCI-H23 lung): 0.484 µM and 0.57 µM
- TGI (NCI-H23 lung): 14.7 µM and 10.6 µM
- GI50 (HOP-62 NSCLC): 0.295 µM and 1.12 µM
- TGI (HOP-62 NSCLC): 9.01 µM and 27.1 µM
- GI50 (M14 melanoma): 0.477 µM and 0.718 µM
- TGI (M14 melanoma): 4.53 µM and 6.29 µM
- GI50 (UACC-257 melanoma): 0.503 µM and 0.706 µM
- TGI (UACC-257 melanoma): 7.55 µM and 10.4 µM
- GI50 (SN12C renal): 0.389 µM
- TGI (SN12C renal): 12.7 µM
- GI50 (HS 578T breast): 0.182 µM and 0.19 µM
- TGI (HS 578T breast): 2.69 µM
- GI50 (U251 CNS): 0.511 µM and 0.856 µM
- TGI (U251 CNS): 2.57 µM and 9.19 µM
- GI50 (A498 renal): 0.199 µM and 0.13 µM
- TGI (A498 renal): 0.664 µM and 0.555 µM
- GI50 (ACHN renal): 0.404 µM and 0.575 µM
- TGI (ACHN renal): 13.8 µM and > 42.5 µM
- GI50 (OVCAR-5 ovarian): 0.214 µM and 0.533 µM
- TGI (OVCAR-5 ovarian): 4.93 µM and 8.78 µM
- GI50 (SF-295 CNS): 0.612 µM and 0.606 µM
- TGI (SF-295 CNS): 4.11 µM and 3.85 µM
- GI50 (CAKI-1 renal): 0.455 µM and 0.326 µM
- TGI (CAKI-1 renal): 9.55 µM and 2.23 µM
- GI50 (OVCAR-3 ovarian): 0.36 µM and 0.616 µM
- TGI (OVCAR-3 ovarian): 1.92 µM and 5.33 µM
- GI50 (OVCAR-4 ovarian): 1.22 µM and 1.47 µM
- TGI (OVCAR-4 ovarian): 10.8 µM and 10.4 µM
- GI50 (PC-3 prostate): 0.594 µM and 0.562 µM
- TGI (PC-3 prostate): 5.2 µM and 7.02 µM
- GI50 (KM12 colon): 1.24 µM and 1.71 µM
- TGI (KM12 colon): 3.39 µM and 8.13 µM
- GI50 (NCI/ADR-RES ovarian): 2.06 µM and 2.07 µM
- TGI (NCI/ADR-RES ovarian): 30.5 µM and 20 µM
- GI50 (786-0 renal): 0.638 µM and 0.671 µM
- TGI (786-0 renal): 5.45 µM and 6.65 µM
- GI50 (IGROV1 ovarian): 0.114 µM
- TGI (IGROV1 ovarian): 0.495 µM
- GI50 (COLO 205 colon): 0.562 µM and 1.06 µM
- TGI (COLO 205 colon): 2.19 µM and 4.53 µM
- GI50 (LOX IMVI melanoma): 0.503 µM and 0.468 µM
- TGI (LOX IMVI melanoma): 3.49 µM and 2.78 µM
- GI50 (MOLT-4 leukemia): 0.311 µM and 0.284 µM
- TGI (MOLT-4 leukemia): 1.81 µM and 2.02 µM
- GI50 (RXF 393 renal): 0.563 µM and 0.31 µM
- TGI (RXF 393 renal): 4.07 µM and 1.71 µM
